Where two headings read alike, the source gives them in different places.
Test system: Hep3B cells (hepatocellular carcinoma cell line)
Test: In vitro MTS cell viability assay (NCI-60 methodology), Hep3B
Assay type: cell-based
Conditions: Homo sapiens, 48 h, 2 days drug incubation, 50% reduction vs time zero, read-out: Hep3B LC50
Method in brief: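 Following NCI-60 method, MTS viability of Hep3B measured 24 h after plating (time zero) and after a further 2-day exposure to five concentrations (2-fold series). LC50 defined where [(Ti−Tz)/Tz]×100 = −50.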

COCCOc1ccc(-c2nc(NC(=O)c3ccc([N+](=O)[O-])s3)c3cnn(-c4ccc(OC)cc4)c3n2)cn1 [Compound 6-26, N-(6-(6-(2-methoxyethoxy)pyridin-3-yl)-1-(4-methoxyphenyl)-1H-pyrazolo[3,4,d]pyrimidin-4-yl)-5-nitrothiophene-2-carboxamide]
LC50 (Table 6, MTS): 220 nM

COC(=O)[C@@H]1CCCN1c1nc(NC(=O)c2ccc([N+](=O)[O-])s2)c2cnn(-c3ccc(F)cc3)c2n1 [Compound 6-100, methyl (1-(4-fluorophenyl)-4-(5-nitrothiophene-2-carboxamido)-1H-pyrazolo [3,4-d]pyrimidin-6-yl)-L-prolinate]
LC50 (Table 6, MTS): 740 nM

O=C(Nc1nc(-c2ccc(F)cc2)nc2c1cnn2-c1ccccn1)c1ccc([N+](=O)[O-])s1 [Compound 7-8, N-(6-(4-fluorophenyl)-1-(pyridin-2-yl)-1H-pyrazolo[3,4-d]pyrimidin-4-yl)-5-nitrothiophene-2-carboxamide]
LC50 (Table 7, MTS): 580 nM

CC(C)n1ncc2c(-c3ccc(OC(F)(F)F)cc3)nc(NC(=O)c3ccc([N+](=O)[O-])s3)nc21 [Compound 2-3, N-(1-isopropyl-4-(4-(trifluoromethoxy)phenyl)-1H-pyrazolo[3,4-d]pyrimidin-6-yl)-5-nitrothiophene-2-carboxamide]
LC50 (Table 2, MTS): 4020 nM

O=C(Nc1nc(-c2ccc(F)cc2)nc2c1cnn2-c1ccc(Cl)cc1)c1ccc([N+](=O)[O-])s1 [Compound 6-48, N-(1-(4-chlorophenyl)-6-(4-fluorophenyl)-1H-pyrazolo[3,4-d]pyrimidin-4-yl)-5-nitrothiophene-2-carboxamide]
LC50 (Table 6, MTS): 180 nM

CC(C)(C)c1ccc(-n2ncc3c(NC(=O)c4ccc([N+](=O)[O-])s4)nc(N4CCN(C(C)(C)C)CC4)nc32)cc1 [Compound 6-73]
LC50 (Table 6, MTS): 650 nM

Cn1ncc2c(NC(=O)c3ccc([N+](=O)[O-])s3)nc(Oc3cccc(C(F)(F)F)c3)nc21 [Compound 1-18, N-(1-methyl-6-(3-(trifluoromethyl)phenoxy)-1H-pyrazolo[3,4-d]pyrimidin-4-yl)-5-nitrothiophene-2-carboxamide]
LC50 (Table 1, MTS): 1990 nM

Cc1ccn(-c2nc(NC(=O)c3ccc([N+](=O)[O-])s3)c3cnn(-c4ccc(C(C)(C)C)cc4)c3n2)n1 [Compound 6-77, N-(1-(4-(tert-butyl)phenyl)-6-(3-methyl-1H-pyrazol-1-yl)-1H-pyrazolo[3,4-d]pyrimidin-4-yl)-5-nitrothiophene-2-carboxamide]
LC50 (Table 6, MTS): 250 nM

CCOCCOCCOc1ccc(-c2nc(NC(=O)c3ccc([N+](=O)[O-])s3)c3cnn(-c4cccc(F)c4)c3n2)cn1 [Compound 6-96, N-(6-(6-(2-(2-ethoxyethoxy)ethoxy)pyridin-3-yl)-1-(3-fluorophenyl)-1H-pyrazolo[3,4-d]pyrimidin-4-yl)-5-nitrothiophene-2-carboxamide]
LC50 (Table 6, MTS): 350 nM

CCOCCOCCOc1nc(NC(=O)c2ccc([N+](=O)[O-])s2)c2cnn(-c3ccc(C(C)(C)C)cc3)c2n1 [Compound 6-61]
LC50 (Table 6, MTS): 540 nM

O=C(Nc1nc(N2CCC[C@H]2CO)nc2c1cnn2-c1cccc(Cl)c1)c1ccc([N+](=O)[O-])s1 [Compound 6-31, (S)—N-(1-(3-chlorophenyl)-6(2-(hydroxymethyl)pyrrolidin-1-yl)-1H-pyrazolo[3,4-d]pyrmidin-4-yl)-5-nitrothiophene-2-carboxamide]
LC50 (Table 6, MTS): > 1250 nM

CC1CCC(c2nc(NC(=O)c3ccc([N+](=O)[O-])s3)c3cnn(-c4ccc(F)cc4)c3n2)CC1 (stereo not drawn) [Compound 6-143, N-(1-(4-fluorophenyl)-6-(4-methylcyclohexyl)-1H-pyrazolo[3,4-d]pyrimidin-4-yl)-5-nitrothiophene-2-carboxamide]
LC50 (Table 6, MTS): 1020 nM

Cc1ccc(-n2ncc3c(NC(=O)c4ccc([N+](=O)[O-])s4)nc(-c4ccc5c(c4)OCO5)nc32)cc1 [Compound 6-9]
LC50 (Table 6, MTS): 400 nM

CCOc1ccc(-c2nc(NC(=O)c3ccc([N+](=O)[O-])s3)c3cnn(C)c3n2)cc1 [Compound 1-2, N-(6-(4-ethoxyphenyl)-1-methyl-1H-pyrazolo[3,4-d]pyrimidin-4-yl)-5-nitrothiophene-2-carboxamide]
LC50 (Table 1, MTS): 3240 nM

CCOCCOCCOC(=O)N1CCC(n2ncc3c(NC(=O)c4ccc([N+](=O)[O-])s4)nc(-c4cccs4)nc32)CC1 [Compound 9-10, 2-(2-ethoxyethoxy)ethyl 4-(4-(5-nitrothiophene-2-carboxamido)-6-(thiophen-2-yl)-1H-pyrazolo[3,4-d]pyrimidin-1-yl)piperidine-1-carboxylate]
LC50 (Table 9, MTS): > 3000 nM

O=C(Nc1nc(-c2ccc(Cl)c(Cl)c2)nc2c1cnn2C1CCCCC1)c1ccc([N+](=O)[O-])s1 [Compound 10-43, N-(1-cyclohexyl-6-(3,4-dichlorophenyl)-1H-pyrazolo[3,4,d]pyrimidin-4-yl)-5-nitrothiophene-2-carboxamide]
LC50 (Table 10, MTS): 770 nM

CCOCCOCCOc1ccc(-c2nc(NC(=O)c3ccc([N+](=O)[O-])s3)c3cnn(-c4ccc(C(F)(F)F)cc4)c3n2)cn1 [Compound 6-56, N-(6(6-(2-(2-ethoxyethoxy)ethoxy)pyridin-3-yl)-1-(4-(trifluoromethyl)phenyl)-1H-pyrazolo[3,4-d]pyrimidin-4-yl)-5-nitrothiophene-2-carboxamide]
LC50 (Table 6, MTS): 200 nM

O=C(Nc1nc(-n2ccc(C(F)(F)F)n2)nc2c1cnn2-c1ccc(F)cc1)c1ccc([N+](=O)[O-])s1 [Compound 6-109, N-(1-(4-fluorophenyl)-6-(3-(trifluoromethyl)-1H-pyrazol-1-yl)-1H-pyrazolo[3,4-d]pyrimidin-4-yl)-5-nitrothiophene-2-carboxamide]
LC50 (Table 6, MTS): 380 nM

CCC(C)(C)c1ccc(-c2nc(NC(=O)c3ccc([N+](=O)[O-])s3)c3cnn(C)c3n2)cc1 [Compound 1-9, N-(1-methyl-6-(4-(tert-pentyl)phenyl)-1H-pyrazolo[3,4-d]pyrimidin-4-yl)-5-nitrothiophene-2-carboxamide]
LC50 (Table 1, MTS): 1500 nM

O=C(Nc1nc(-c2ccc(F)cc2)nc2c(-c3cccc(F)c3)csc12)c1ccc([N+](=O)[O-])s1 [Compound 4-18, N-(7-(3-fluorophenyl)-2-(4-fluorophenyl)thieno[3,2-d]pyrimidin-4-yl)-5-nitrothiophene-2-carboxamide]
LC50 (Table 4, MTS): 490 nM

CC(C)n1ncc2c(NC(=O)c3ccc([N+](=O)[O-])s3)nc(-c3ccc(C(F)(F)F)cc3)nc21 [Compound 1-24, N-(1-isopropyl-6-(4-(trifluoromethyl)phenyl)-1H-pyrazolo[3,4-d]pyrimidin-4-yl)-5-nitrothiophene-2-carboxamide]
LC50 (Table 1, MTS): 900 nM

CC(C)(C)n1ncc2c(-c3ccc(OC(F)(F)F)cc3)nc(NC(=O)c3ccc([N+](=O)[O-])s3)nc21 [Compound 2-4, N-(1-(tert-butyl)-4-(4-(trifluoromethoxy)phenyl)-1H-pyrazolo[3,4,d]pyrimidin-6-yl)-5-nitrothiophene-2-carboxamide]
LC50 (Table 2, MTS): 3050 nM

CC1(C)CCC(n2ncc3c(NC(=O)c4ccc([N+](=O)[O-])s4)nc(-c4ccc(Cl)cc4)nc32)CC1 [Compound 10-63, N-(6(4-chlorophenyl)-1-(4,4-dimethylcyclohexyl)-1H-pyrazolo[3,4-d]pyrimidin-4-yl)-5-nitrothiophene-2-carboxamide]
LC50 (Table 10, MTS): 860 nM

COc1ccc(-n2ncc3c(NC(=O)c4ccc([N+](=O)[O-])s4)nc(-c4ccc(C)nc4)nc32)cc1 [Compound 6-17, N-(1-(4-methoxyphenyl)-6-(6-methylpyridin-3-yl)-1H-pyrazolo[3,4,d]pyrimidin-4-yl)-5-nitrothiophene-2-carboxamide]
LC50 (Table 6, MTS): 190 nM

From patent publication US20240150356A1, “Pyrimidine amide compounds and use thereof” (ALPHALA CO., LTD., priority 2019, published 2024)
